Values after ≈ are worked out from the molar mass of the structure shown. Read-outs that look alike come from different tables or passages of the source.
What was measured:
Staphylococcus aureus = conditions: 37° C., 24 h
Experimental: (§5) Prepare Escherichia coli, Candida albicans, Staphylococcus aureus, Bacillus subtilis, Staphylococcus haemolyticus, Staphylococcus epidermidis, Staphylococcus cohnii solutions respectively, incubate at 37° C. for 18 h, for standby;
(§6) Prepare Broth Agar Medium, and sterilize it for standby;
(§7) Dissolve the Broth Agar Medium, cool down to 50° C., add 1 ml of Escherichia coli, Candida albicans, Staphylococcus aureus, Bacillus subtilis, Staphylococcus haemolyticus, Staphylococcus epidermidis, Staphylococcus cohnii solutions respectively, shake gently and pour into a sterile petri dish, gently shake the medium to evenly pave on the dish;
(§8) Place the filters into a cooled dish using a sterile tweezer orderly, cover with a tile cover and mark, then place to a 37° C. incubator for incubation for 24 h;

[1] = tested on: Staphylococcus epidermidis (09A3726 anti-ampicillin); conditions: 37° C., 24 h
Experimental: as §5, §6, §7, §8

lung cancer cell A549 = experiment: MTT assay against lung cancer cell A549; format: cell-based
Experimental: 1. Collect the lung cancer cell A549 in the logarithmic phase to prepare cell suspension, adjust its concentration to 5×10^6-10×10^6/ml, add 100 ul to each hole, pave the plate to adjust the cell density to 1000-10000 holes; fill the holes on the edges with sterile PBS;
2. Incubate cells under the condition of 5% CO2 and 37° C. until the cell monolayer are paved on 96-hole plate bottom; after cell adhesion for 2-12 h, add the low molecular polypeptide ZY4 at a concentration of 100 ug/ml and 200 ug/ml, paclitaxel at a concentration of 10 ug/ml and 5 ug/ml to incubate for 16-48 h under the condition of 5% CO2 and 37° C., and then observe under an inverted microscope;
(§1) 3. Add 20 ul of 5 mg/ml MTT solution to each hole, to continue to culture 4 h, and then draw the culture solution in the hole;
(§2) 4. Add 150 ul of DMSO to each hole, place to a shaker for oscillation 10 min at a low speed, to allow the crystals fully dissolved, measure the absorbance values of each hole at OD 490 nm using a ELISA Reader; at the same time, set the zero hole and control hole.

liver cancer cell HepG2 = conditions: NS control 1.0
Experimental: 1. Collect the liver cancer cell HepG2 in the logarithmic phase to prepare cell suspension, adjust its concentration to 5×10^6-10×10^6/ml, add 100 ul to each hole, pave the plate to adjust the cell density to 1000-10000 holes; fill the holes on the edges with sterile PBS;
(§3) 2. Incubate cells under the condition of 5% CO2 and 37° C. until the cell monolayer are paved on 96-hole plate bottom; after cell adhesion for 2-12 h, add the low molecular polypeptide ZY4 at a concentration of 100 ug/ml and 200 ug/ml, and the same volume of NS as control, to incubate for 16-48 h under the condition of 5% CO2 and 37° C., and then observe under an inverted microscope;
as §1, §2

P. acnes ATCC11817 = conditions: 2 mg/ml ointment on left ear skin, once every 8 h, 3 times, mice sacrificed 24 h later; PEG control 9.44×10^5
Experimental: Select Kunming male mice at a weight of 18 g each, and randomly divide them into 3 groups, 6 mice each group, respectively the treatment group, positive control group, negative control group. Each mouse is anaesthetized with 120 ul of 1% pentobarbital sodium by intraperitoneal injection, and then injected with 20 ul of resuspended bacteria solution via intracutaneous injection in the left ear of each mouse;
Disinfect the left ears of mice with a clean alcohol cotton ball, cut off the left ears into pieces, transfer to a homogenizer for homogenization. Add 1 ml of NS for homogenization for one ear;
Dilute the homogenate to 1,000-fold, take 50 ul of diluent and apply to a brain heart infusion agar plate, culture at 37° C. under the anaerobic condition for 72 h, and count the colonies.

[2] = tested on: Staphylococcus haemolyticus (09A4394 anti-ampicillin); conditions: 37° C., 24 h
Experimental: as §5, §6, §7, §8

Escherichia coli = conditions: 37° C., 24 h
Experimental: as §5, §6, §7, §8

Candida albicans = conditions: 37° C., 24 h
Experimental: as §5, §6, §7, §8

[3] = tested on: gastric cancer cell SGC7901
Experimental: 1. Collect the gastric cancer cell SGC7901 in the logarithmic phase to prepare cell suspension, adjust its concentration to 5×10^6-10×10^6/ml, add 100 ul to each hole, pave the plate to adjust the cell density to 1000-10000 holes; fill the holes on the edges with sterile PBS;
(§4) 2. Incubate cells under the condition of 5% CO2 and 37° C. until the cell monolayer are paved on 96-hole plate bottom; after cell adhesion for 2-12 h, add the low molecular polypeptide ZY4 at a concentration of 50-300 ug/ml, and the same volume of NS as control, to incubate for 16-48 h under the condition of 5% CO2 and 37° C., and then observe under an inverted microscope;
as §1, §2

Bacillus subtilis = conditions: 37° C., 24 h
Experimental: as §5, §6, §7, §8

[4] = tested on: Staphylococcus aureus (09B2499); conditions: 37° C., 24 h
Experimental: as §5, §6, §7, §8

[5] = tested on: Staphylococcus cohnii (09B2490 anti-ampicillin); conditions: 37° C., 24 h
Experimental: as §5, §6, §7, §8

P. acnes ATCC6919 = conditions: 2 mg/ml ointment on left ear skin, treated for 1 day; 0.20 mm before treatment, PEG control 0.43 mm
Experimental: Select Kunming male mice at a weight of 18 g each, and randomly divide them into 3 groups, 9 mice each group, respectively the treatment group, positive control group, negative control group. Each mouse is anaesthetized with 50 ul of ketamine by intraperitoneal injection, and then injected with 20 ul of resuspended bacteria solution via intracutaneous injection in the left ear of each mouse;
Disinfect the left ears of mice with a clean alcohol cotton ball, and measure the thickness of the ears of mice, results are shown in FIG. 2.

melanoma cell A357 = conditions: NS control 1.0
Experimental: 1. Collect the melanoma cell A357 in the logarithmic phase to prepare cell suspension, adjust its concentration to 5×10^6-10×10^6/ml, add 100 ul to each hole, pave the plate to adjust the cell density to 1000-10000 holes; fill the holes on the edges with sterile PBS;
as §3, §1, §2

[6] = tested on: breast cancer cell MDA-435
Experimental: 1. Collect the breast cancer cell MDA-435 in the logarithmic phase to prepare cell suspension, adjust its concentration to 5×10^6-10×10^6/ml, add 100 ul to each hole, pave the plate to adjust the cell density to 1000-10000 holes; fill the holes on the edges with sterile PBS;
as §4, §1, §2

In the case of `CC(C)[C@H](N)C(=O)N[C@H]1CSSC[C@@H](C(=O)N[C@H](C(N)=O)C(C)C)NC(=O)[C@H](Cc2c[nH]c3ccccc23)NC(=O)[C@H](CCCCN)NC(=O)[C@H](CCCCN)NC(=O)[C@H](Cc2c[nH]c3ccccc23)NC(=O)[C@H](CCCCN)NC(=O)[C@H](CCCNC(=N)N)NC(=O)[C@H](CCCCN)NC(=O)[C@H](Cc2c[nH]c3ccccc23)NC(=O)[C@H](CCCCN)NC(=O)[C@H](CCCCN)NC(=O)[C@H](Cc2c[nH]c3ccccc23)NC(=O)[C@H](CCCNC(=N)N)NC(=O)[C@H](CCCCN)NC1=O` [ZY4], the Minimum inhibitory concentration (Staphylococcus aureus) is reported as 2.14 µg/mL (≈ 0.901 µM), the Minimum inhibitory concentration [1] is reported as 2.45 µg/mL (≈ 1.03 µM) and the “OD value (MTT, OD 490 nm)” value (lung cancer cell A549; A549, 100 ug/ml ZY4, 16-48 h) is reported as 0.5. The “OD value (MTT, OD 490 nm)” value (lung cancer cell A549; A549, 200 ug/ml ZY4, 16-48 h) was 0.3, the “OD value (MTT, OD 490 nm)” value (liver cancer cell HepG2; HepG2, 100 ug/ml ZY4, 16-48 h) was 0.89 and the “OD value (MTT, OD 490 nm)” value (liver cancer cell HepG2; HepG2, 200 ug/ml ZY4, 16-48 h) was 0.6. The “CFU of P. acnes after treatment” value (P. acnes ATCC11817) was 2.1×10^5 CFU, the Minimum inhibitory concentration [2] was 2.17 µg/mL (≈ 0.914 µM) and the Minimum inhibitory concentration (Escherichia coli) was 12.15 µg/mL (≈ 5.12 µM). For the same compound, the Minimum inhibitory concentration (Candida albicans) was 2.12 µg/mL (≈ 0.893 µM), the “OD value (MTT, OD 490 nm)” value ([3]; SGC7901, 50 ug/ml ZY4, 16-48 h) was 0.65 and the “OD value (MTT, OD 490 nm)” value ([3]; SGC7901, 100 ug/ml ZY4, 16-48 h) was 0.57. The “OD value (MTT, OD 490 nm)” value ([3]; SGC7901, 200 ug/ml ZY4, 16-48 h) was 0.2, the “OD value (MTT, OD 490 nm)” value ([3]; SGC7901, 300 ug/ml ZY4, 16-48 h) was 0.09 and the Minimum inhibitory concentration (Bacillus subtilis) was 1.10 µg/mL (≈ 0.463 µM). The Minimum inhibitory concentration [4] was 2.25 µg/mL (≈ 0.948 µM), the Minimum inhibitory concentration [5] was 1.10 µg/mL (≈ 0.463 µM) and the “thickness of mice ear” value (P. acnes ATCC6919) was 0.25 mm. The “OD value (MTT, OD 490 nm)” value (melanoma cell A357; A357, 100 ug/ml ZY4, 16-48 h) was 1.0, the “OD value (MTT, OD 490 nm)” value (melanoma cell A357; A357, 200 ug/ml ZY4, 16-48 h) was 0.72 and the “OD value (MTT, OD 490 nm)” value ([6]; MDA-435, 50 ug/ml ZY4, 16-48 h) was 0.7. For the same compound, the “OD value (MTT, OD 490 nm)” value ([6]; MDA-435, 100 ug/ml ZY4, 16-48 h) was 0.61, the “OD value (MTT, OD 490 nm)” value ([6]; MDA-435, 200 ug/ml ZY4, 16-48 h) was 0.20 and the “OD value (MTT, OD 490 nm)” value ([6]; MDA-435, 300 ug/ml ZY4, 16-48 h) was 0.17.

For `CC(=O)O[C@H]1C(=O)[C@@]2(C)[C@H]([C@H](OC(=O)c3ccccc3)[C@]3(O)C[C@H](OC(=O)[C@H](O)[C@@H](NC(=O)c4ccccc4)c4ccccc4)C(C)=C1C3(C)C)[C@]1(OC(C)=O)CO[C@@H]1C[C@@H]2O` [paclitaxel, reference compound], the “OD value (MTT, OD 490 nm)” value (lung cancer cell A549; A549, 10 ug/ml paclitaxel (first statement), 16-48 h) was 0.5 and the “OD value (MTT, OD 490 nm)” value (lung cancer cell A549; A549, 10 ug/ml paclitaxel (second statement), 16-48 h) was 0.7.
